Patent publication US8551988B2, “Benzimidazole derivatives: preparation and pharmaceutical applications” (Mei Pharma, Inc., priority 2003, dated 2013)
Read-outs that look alike come from different tables or passages of the source.

Columns and labels:
[1] = biological target: HDAC1 enzyme (recombinant GST-HDAC1) (Homo sapiens (Human), UniProt Q13547); assay: In vitro HDAC assay (BIOMOL fluorescent-based HDAC activity assay), HDAC1; type: biochemical
Method: (§1) The assay has been carried out in 96 well format and the BIOMOL fluorescent-based HDAC activity assay has been applied. […] Flur de lys Developer was added and the reaction was incubated for 10 min. Briefly, deacetylation of the substrate sensitizes it to the developer, which then generates a fluorophore (symbol). The fluorophore is excited with 360 nm light and the emitted light (460 nm) is detected on a fluorometric plate reader (Tecan Ultra Microplate detection system, Tecan Group Ltd.).
(§2) The analytical software, Prism 3.0 has been used to generate IC50 from a series of data.

[2] = biological target: HDAC8 enzyme (recombinant GST-HDAC8) (Homo sapiens (Human), UniProt Q9BY41); assay: In vitro HDAC assay (BIOMOL fluorescent-based HDAC activity assay), HDAC8; type: biochemical
HDAC8 enzyme (recombinant GST-HDAC8), sequence (Q9BY41 whole entry): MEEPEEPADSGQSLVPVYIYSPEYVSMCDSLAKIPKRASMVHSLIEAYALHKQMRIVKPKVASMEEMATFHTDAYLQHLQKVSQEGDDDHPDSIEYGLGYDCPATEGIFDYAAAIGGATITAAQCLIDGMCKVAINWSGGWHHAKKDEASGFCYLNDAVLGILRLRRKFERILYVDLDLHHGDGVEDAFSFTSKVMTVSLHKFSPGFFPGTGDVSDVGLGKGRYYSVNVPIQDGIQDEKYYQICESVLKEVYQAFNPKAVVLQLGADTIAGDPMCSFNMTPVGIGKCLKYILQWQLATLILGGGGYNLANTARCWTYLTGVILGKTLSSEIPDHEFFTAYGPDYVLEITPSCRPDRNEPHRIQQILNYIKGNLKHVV
Method: as §1, §2

[3] = read-out: HDAC1 Enzyme Activity IC50
[4] = read-out: HDAC8 Enzyme Activity IC50

HDAC1 enzyme (recombinant GST-HDAC1), sequence (Q13547 whole entry): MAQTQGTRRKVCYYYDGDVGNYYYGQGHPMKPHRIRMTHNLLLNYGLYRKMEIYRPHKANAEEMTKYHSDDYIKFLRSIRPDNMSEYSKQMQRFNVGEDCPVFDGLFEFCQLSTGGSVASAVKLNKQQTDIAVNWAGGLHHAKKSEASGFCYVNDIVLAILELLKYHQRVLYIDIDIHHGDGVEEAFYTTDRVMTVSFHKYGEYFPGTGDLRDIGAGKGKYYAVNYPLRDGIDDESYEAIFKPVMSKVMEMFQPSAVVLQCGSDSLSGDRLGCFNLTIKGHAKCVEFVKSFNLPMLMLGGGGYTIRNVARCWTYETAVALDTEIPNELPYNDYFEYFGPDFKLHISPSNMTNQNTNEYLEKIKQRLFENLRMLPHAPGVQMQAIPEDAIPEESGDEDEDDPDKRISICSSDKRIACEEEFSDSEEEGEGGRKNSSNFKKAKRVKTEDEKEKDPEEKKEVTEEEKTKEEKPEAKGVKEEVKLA

For `O=C(/C=C/c1ccc2c(c1)nc(-c1ccsc1)n2CCCO)NO` [Compound 20, N-Hydroxy-3-[1-(3-hydroxy-propyl)-2-thiophen-3-yl-1H-benzimidazol-5-yl]-acrylamide], which IC50 [1, 3] is on record?
Its IC50 is 1910 nM.

What about the IC50 [2, 4] of the same compound?
The IC50 was 537 nM.

What does the source list for `CC(C)Cc1nc2cc(/C=C/C(=O)NO)ccc2n1CCCO` [Compound 21, N-Hydroxy-3-[1-(3-hydroxy-propyl)-2-isobutyl-1H-benzimidazol-5-yl]-acrylamide]?
IC50 [1, 3]: 64 nM; IC50 [2, 4]: 238 nM

For `CCCCCCCCc1nc2cc(/C=C/C(=O)NO)ccc2n1CCCO` [Compound 23, N-Hydroxy-3-[1-(3-hydroxy-propyl)-2-octyl-1H-benzimidazol-5-yl]-acrylamide], which IC50 [1, 3] is on record?
Its IC50 is 529 nM.

What about the IC50 [2, 4] of the same compound?
The IC50 was 402 nM.

Which results are given for `CC(C)Cc1nc2cc(/C=C/C(=O)NO)ccc2n1CCc1ccccc1` [Compound 25, N-Hydroxy-3-(2-isobutyl-1-phenethyl-1H-benzimidazol-5-yl]-acrylamide]?
IC50 [1, 3]: 1320 nM; IC50 [2, 4]: 601 nM

For `O=C(/C=C/c1ccc2c(c1)nc(CCc1ccccc1)n2CCc1cccnc1)NO` [Compound 27, N-Hydroxy-3-(2-phenethyl-1-(2-pyridin-3-yl-ethyl)-1H-benzimidazol-5-yl]-acrylamide], which IC50 [1, 3] is on record?
Its IC50 is 92 nM.

And the IC50 [2, 4]?
The IC50 was 329 nM.

How did the IC50 [1, 3] turn out when `O=C(/C=C/c1ccc2c(c1)nc(CCc1ccccc1)n2CCCN1CCCC1=O)NO` [Compound 30, N-Hydroxy-3-{1-[3-(2-oxo-pyrrolidin-1-yl)-propyl]-2-phenethyl-1H-benzimidazol-5-yl}-acrylamide] was run?
Its IC50 is 195 nM.

What about the IC50 [2, 4] of the same compound?
The IC50 was 724 nM.

Which results are given for `O=C(/C=C/c1ccc2c(c1)nc(CCc1ccccc1)n2CCCN1CCOCC1)NO` [Compound 31, N-Hydroxy-3-[1-(3-morpholin-4-propyl]-2-phenethyl-1H-benzimidazol-5-yl}-acrylamide]?
IC50 [1, 3]: 246 nM; IC50 [2, 4]: 1090 nM

For `O=C(/C=C/c1ccc2c(c1)nc(CCc1ccccc1)n2Cc1ccccc1)NO` [Compound 33, N-Hydroxy-3-(1-Benzyl-2-phenethyl-1H-benzimidazol-5-yl}-acrylamide], which IC50 [1, 3] is on record?
The IC50 was 449 nM.

And the IC50 [2, 4]?
The IC50 was 1450 nM.

What does the source list for `CC(C)Cc1nc2cc(/C=C/C(=O)NO)ccc2n1Cc1ccccc1` [Compound 34, N-Hydroxy-3-(1-Benzyl-2-isobutyl-1H-benzimidazol-5-yl}-acrylamide]?
IC50 [1, 3]: 1460 nM; IC50 [2, 4]: 846 nM

How did the IC50 [1, 3] turn out when `O=C(/C=C/c1ccc2c(c1)ncn2Cc1ccccc1)NO` [Compound 35, N-Hydroxy-3-(1-Benzyl-1H-benzimidazol-5-yl}-acrylamide] was run?
The IC50 was 371 nM.

And the IC50 [2, 4]?
Its IC50 is 412 nM.

`O=C(/C=C/c1ccc2c(c1)ncn2CCc1ccccn1)NO` [Compound 42, N-Hydroxy-3-[1-(2-pyridin-2-yl-ethyl)-1H-benzimidazol-5-yl]-acrylamide] was tested. Which IC50 [1, 3] did it give?
The IC50 was 479 nM.

What about the IC50 [2, 4] of the same compound?
The IC50 was 237 nM.

What does the source list for `CCn1c(C)nc2cc(/C=C/C(=O)NO)ccc21` [Compound 43, N-Hydroxy-3-(1-Ethyl-2-methyl-1H-benzimidazol-5-yl]-acrylamide]?
IC50 [1, 3]: 947 nM; IC50 [2, 4]: 192 nM

For `CCN(CC)CCn1c(CCc2ccccc2)nc2cc(/C=C/C(=O)NO)ccc21` [Compound 66, N-Hydroxy-3-[1-(2-diethylamino-ethyl)-2-phenethyl-1H-benzimidazol-5-yl]-acrylamide], which IC50 [1, 3] is on record?
Its IC50 is 72 nM.

What about the IC50 [2, 4] of the same compound?
The IC50 was 255 nM.

How did the IC50 ([1]; Free base, read-out: IC50 (HDAC1)) turn out when `O=C(/C=C/c1ccc2c(c1)nc(CCc1ccccc1)n2CCN1CCCCC1)NO` [Compound 67, N-Hydroxy-3-[2-phenethyl-1-(piperidin-1-yl-ethyl)-1H-benzimidazol-5-yl]-acrylamide] was run?
The IC50 was 37 nM.

And the IC50 ([2]; Free base, read-out: IC50 (HDAC8))?
The IC50 was 254 nM.
